Test results reported in ChEMBL document CHEMBL3124929, “Novel S1P(1) receptor agonists--part 3: from thiophenes to pyridines” (J Med Chem, 2014).

Key:
[1] = Cmax in Wistar rat at 1 mg/kg, po by LC-MS/MS analysis; type: ADME, organism-based; parameters: dose 1 mg/kg, route oral; conditions: in vivo
[2] = Volume of distribution at steady state in Wistar rat at 0.5 mg/kg, iv by LC-MS/MS analysis; type: ADME, organism-based; parameters: dose 0.5 mg/kg, route intravenous; conditions: in vivo, read-out: Vdss
[3] = AUC (0 to 24 hrs) in Wistar rat at 1 mg/kg, po by LC-MS/MS analysis; type: ADME, organism-based; parameters: time < 24 hr, dose 1 mg/kg, route oral; conditions: plasma
[4] = AUC (0 to infinity) in Wistar rat at 0.5 mg/kg, iv by LC-MS/MS analysis; type: ADME, organism-based; parameters: time infinity, dose 0.5 mg/kg, route intravenous; conditions: plasma
[5] = Tmax in Wistar rat at 1 mg/kg, po by LC-MS/MS analysis; type: ADME, organism-based; parameters: dose 1 mg/kg, route oral; conditions: in vivo
[6] = Oral bioavailability in Wistar rat at 1 mg/kg by LC-MS/MS analysis; type: ADME, organism-based; conditions: in vivo
[7] = Tmax in Beagle dog at 3 mg/kg, po by LC-MS/MS analysis; type: ADME, organism-based, Canis lupus familiaris; parameters: dose 3 mg/kg, route oral; conditions: in vivo
[8] = AUC (0 to 32 hrs) in Wistar rat at 10 mg/kg, po by LC-MS/MS analysis; type: ADME, organism-based; parameters: time < 32 hr, dose 10 mg/kg, route oral; conditions: plasma
[9] = Tmax in Wistar rat brain at 10 mg/kg, po; type: ADME, organism-based; parameters: dose 10 mg/kg, route oral
[10] = Oral bioavailability in Wistar rat at 10 mg/kg by LC-MS/MS analysis; type: ADME, organism-based; conditions: in vivo
[11] = Cmax in Beagle dog at 3 mg/kg, po by LC-MS/MS analysis; type: ADME, organism-based, Canis lupus familiaris; parameters: dose 3 mg/kg, route oral; conditions: in vivo
[12] = Volume of distribution at steady state in Beagle dog at 1 mg/kg, iv by LC-MS/MS analysis; type: ADME, organism-based, Canis lupus familiaris; parameters: dose 1 mg/kg, route intravenous; conditions: in vivo, read-out: Vdss
[13] = Tmax in cynomolgus monkey at 1 mg/kg, po by LC-MS/MS analysis; type: ADME, organism-based, Macaca fascicularis; parameters: dose 1 mg/kg, route oral; conditions: in vivo
[14] = Tmax in Wistar rat at 10 mg/kg, po by LC-MS/MS analysis; type: ADME, organism-based; parameters: dose 10 mg/kg, route oral; conditions: in vivo
[15] = Plasma concentration in Wistar rat at 10 mg/kg, po after 24 hrs; type: ADME, organism-based; parameters: dose 10 mg/kg, route oral
[16] = Drug uptake in Wistar rat brain at 10 mg/kg, po after 2 hrs; type: ADME, organism-based; parameters: dose 10 mg/kg, route oral; conditions: read-out: Drug uptake
[17] = Oral bioavailability in Beagle dog at 3 mg/kg by LC-MS/MS analysis; type: ADME, organism-based, Canis lupus familiaris; conditions: in vivo
[18] = Volume of distribution at steady state in Wistar rat at 1 mg/kg, iv by LC-MS/MS analysis; type: ADME, organism-based; parameters: dose 1 mg/kg, route intravenous; conditions: in vivo, read-out: Vdss
[19] = Plasma concentration in Wistar rat at 10 mg/kg, po after 2 hrs; type: ADME, organism-based; parameters: dose 10 mg/kg, route oral
[20] = AUC (0 to infinity) in cynomolgus monkey at 1 mg/kg, iv by LC-MS/MS analysis; type: ADME, organism-based, Macaca fascicularis; parameters: time infinity, dose 1 mg/kg, route intravenous; conditions: plasma
[21] = AUC (0 to 24 hrs) in Beagle dog at 3 mg/kg, po by LC-MS/MS analysis; type: ADME, organism-based, Canis lupus familiaris; parameters: time < 24 hr, dose 3 mg/kg, route oral; conditions: plasma
[22] = Cmax in Wistar rat at 10 mg/kg, po by LC-MS/MS analysis; type: ADME, organism-based; parameters: dose 10 mg/kg, route oral; conditions: in vivo
[23] = Cmax in cynomolgus monkey at 1 mg/kg, po by LC-MS/MS analysis; type: ADME, organism-based, Macaca fascicularis; parameters: dose 1 mg/kg, route oral; conditions: in vivo
[24] = Volume of distribution at steady state in cynomolgus monkey at 1 mg/kg, iv by LC-MS/MS analysis; type: ADME, organism-based, Macaca fascicularis; parameters: dose 1 mg/kg, route intravenous; conditions: in vivo, read-out: Vdss
[25] = Plasma concentration in Wistar rat at 10 mg/kg, po after 6 hrs; type: ADME, organism-based; parameters: dose 10 mg/kg, route oral
[26] = Oral bioavailability in cynomolgus monkey at 1 mg/kg by LC-MS/MS analysis; type: ADME, organism-based, Macaca fascicularis; conditions: in vivo
[27] = Tmax in Wistar rat plasma at 10 mg/kg, po; type: ADME, organism-based; parameters: dose 10 mg/kg, route oral
[28] = AUC (0 to 24 hrs) in cynomolgus monkey at 1 mg/kg, po by LC-MS/MS analysis; type: ADME, organism-based, Macaca fascicularis; parameters: time < 24 hr, dose 1 mg/kg, route oral; conditions: plasma
[29] = AUC (0 to infinity) in Beagle dog at 1 mg/kg, iv by LC-MS/MS analysis; type: ADME, organism-based, Canis lupus familiaris; parameters: time infinity, dose 1 mg/kg, route intravenous; conditions: plasma
[30] = Drug uptake in Wistar rat brain at 10 mg/kg, po after 6 hrs; type: ADME, organism-based; parameters: dose 10 mg/kg, route oral; conditions: read-out: Drug uptake
[31] = Drug uptake in Wistar rat brain at 10 mg/kg, po after 24 hrs; type: ADME, organism-based; parameters: dose 10 mg/kg, route oral; conditions: read-out: Drug uptake
[32] = AUC (0 to infinity) in Wistar rat at 1 mg/kg, iv by LC-MS/MS analysis; type: ADME, organism-based; parameters: time infinity, dose 1 mg/kg, route intravenous; conditions: plasma
[33] = Plasma concentration in Wistar rat at 10 mg/kg, po after 3 hrs; type: ADME, organism-based; parameters: dose 10 mg/kg, route oral
[34] = AUC (0 to 24 hrs) in Wistar rat at 10 mg/kg, po by LC-MS/MS analysis; type: ADME, organism-based; parameters: time < 24 hr, dose 10 mg/kg, route oral; conditions: plasma

concentration at 24 h [15] | concentration at 2 h [16] | concentration at 2 h [19] | concentration at 6 h [25] | concentration at 6 h [30] | concentration at 24 h [31] | Structure (SMILES) | further results
– | – | – | – | – | – | CCc1cc(-c2noc(-c3cc(C)nc(C4CCCC4)c3)n2)cc(C)c1OC[C@@H](O)CNC(=O)CO | Cmax [1]: 49 ng/mL; Vd [2]: 7.3 L/kg; AUC(0-t) at 24 h [3]: 436 ng·h/mL; AUC(0-inf) [4]: 566 ng·h/mL; Tmax [5]: 3 h; bioavailability [6]: 39%
412 ng/mL | 269 ng/mL | 2170 ng/mL | 1780 ng/mL | 653 ng/mL | 487 ng/mL | CCc1cc(-c2noc(-c3cc(C)nc(N(CC)CC)c3)n2)cc(C)c1OC[C@@H](O)CNC(=O)CO | Tmax [7]: 1 h; AUC(0-t) at 32 h [8]: 16500 ng·h/mL; Tmax [9]: 6 h; bioavailability [10]: 52%; Cmax [11]: 546 ng/mL; Vd [12]: 1.2 L/kg; Tmax [13]: 2 h; Tmax [14]: 2 h; bioavailability [17]: 32%; Vd [18]: 3.5 L/kg; AUC(0-inf) [20]: 5450 ng·h/mL; AUC(0-t) at 24 h [21]: 3250 ng·h/mL; Cmax [22]: 1090 ng/mL; Cmax [23]: 97 ng/mL; Vd [24]: 1.1 L/kg; bioavailability [26]: 16%; Tmax [27]: 2 h; AUC(0-t) at 24 h [28]: 866 ng·h/mL; AUC(0-inf) [29]: 3350 ng·h/mL; AUC(0-inf) [32]: 3200 ng·h/mL
4 ng/mL | 600 ng/mL | 820 ng/mL | 315 ng/mL | 215 ng/mL | 2 ng/mL | CCc1cc(-c2nnc(-c3cc(C)nc(N(CC)CC)c3)o2)cc(C)c1OC[C@@H](O)CO | –
800 nM | – | – | 3690 nM | – | – | CCc1cc(-c2noc(-c3cc(C)c(C4CCCC4)cn3)n2)cc(C)c1OC[C@@H](O)CNC(=O)CO | concentration at 3 h [33]: 4910 nM
8 ng/mL | 46 ng/mL | 815 ng/mL | 510 ng/mL | 52 ng/mL | 3 ng/mL | CCc1cc(-c2nnc(-c3cc(C)nc(N(CC)CC)c3)o2)cc(C)c1OC[C@@H](O)CNC(=O)CO | –
– | – | – | – | – | – | CCc1cc(-c2noc(-c3cc(C)nc(C(CC)CC)c3)n2)cc(C)c1OC[C@@H](O)CNC(=O)CO | Vd [2]: 3.4 L/kg; AUC(0-t) at 24 h [34]: 1760 ng·h/mL; bioavailability [10]: 126%; Tmax [14]: 0.5 h; AUC(0-inf) [4]: 69.9 ng·h/mL; Cmax [22]: 804 ng/mL
9 nM | – | – | 1070 nM | – | – | CCc1cc(-c2noc(-c3cc(C4CCCC4)cc(C)n3)n2)cc(C)c1OC[C@@H](O)CNC(=O)CO | concentration at 3 h [33]: 1890 nM
230 ng/mL | 140 ng/mL | 875 ng/mL | 918 ng/mL | 369 ng/mL | 301 ng/mL | CCc1cc(-c2nc(-c3cc(C)nc(N(CC)CC)c3)no2)cc(C)c1OC[C@@H](O)CNC(=O)CO | –
22 ng/mL | 435 ng/mL | 608 ng/mL | 254 ng/mL | 271 ng/mL | 34 ng/mL | CCc1cc(-c2noc(-c3cc(C)nc(N(CC)CC)c3)n2)cc(C)c1OC[C@@H](O)CO | –
